From paper PMC12749626, “Expediting hit-to-lead progression in drug discovery through reaction prediction and multi-dimensional optimization” (Nature Communications, 2025)
≈ marks a conversion by molar mass, not a printed value.

Legend:
[1] = Solubility in 0.05M PO4-; type: physicochemical; settings: for solubility: 0.05 M phosphate buffer, aqueous buffer
[2] = target: CYP2C9 (Homo sapiens, UniProt P11712); assay: Cytochrome P450 inhibition assay, CYP2C9; settings: liver microsomes
[3] = target: CYP2D6 (Homo sapiens, UniProt P10635); assay: Cytochrome P450 inhibition assay, CYP2D6; settings: liver microsomes
[4] = target: CYP3A4 (Homo sapiens, UniProt P08684); assay: Cytochrome P450 inhibition assay, CYP3A4; settings: liver microsomes
[5] = Parallel Artificial Membrane Permeability (PAMPA); settings: for PAMPA permeability: donor buffer pH 6.0, 18-hour incubation; for Papp at 18 h, 150 µM: PAMPA, pH 6
[6] = Microsomal clearance, human microsomes
[7] = Hepatocyte clearance; settings: for hepatocyte CLint at 1 µM: human, primary pooled cryopreserved hepatocytes in suspension
[8] = Microsomal clearance, mouse microsomes
[9] = target: ABCB1 (MDR1, human P-gp) (Homo sapiens, UniProt P08183); assay: P-glycoprotein (P-gp) assay in LLC-PK1 cells transfected with ABCB1; settings: human, LLC-PK1
[10] = Solubility in FESSIF; type: physicochemical
[11] = target: T1, human MAGL (Homo sapiens, UniProt Q99685); settings: = pIC50 - cLogP
T1 sequence (Q99685 1-303): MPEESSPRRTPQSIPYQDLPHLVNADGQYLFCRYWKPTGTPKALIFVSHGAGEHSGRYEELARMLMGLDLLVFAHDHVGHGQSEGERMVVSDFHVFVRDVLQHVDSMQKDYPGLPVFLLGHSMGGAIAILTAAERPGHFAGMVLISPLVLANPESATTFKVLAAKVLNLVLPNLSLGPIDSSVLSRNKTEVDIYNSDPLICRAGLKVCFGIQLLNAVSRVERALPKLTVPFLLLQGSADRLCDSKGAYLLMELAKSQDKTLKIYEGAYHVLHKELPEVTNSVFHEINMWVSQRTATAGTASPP

CYP3A4, sequence (P08684 whole entry): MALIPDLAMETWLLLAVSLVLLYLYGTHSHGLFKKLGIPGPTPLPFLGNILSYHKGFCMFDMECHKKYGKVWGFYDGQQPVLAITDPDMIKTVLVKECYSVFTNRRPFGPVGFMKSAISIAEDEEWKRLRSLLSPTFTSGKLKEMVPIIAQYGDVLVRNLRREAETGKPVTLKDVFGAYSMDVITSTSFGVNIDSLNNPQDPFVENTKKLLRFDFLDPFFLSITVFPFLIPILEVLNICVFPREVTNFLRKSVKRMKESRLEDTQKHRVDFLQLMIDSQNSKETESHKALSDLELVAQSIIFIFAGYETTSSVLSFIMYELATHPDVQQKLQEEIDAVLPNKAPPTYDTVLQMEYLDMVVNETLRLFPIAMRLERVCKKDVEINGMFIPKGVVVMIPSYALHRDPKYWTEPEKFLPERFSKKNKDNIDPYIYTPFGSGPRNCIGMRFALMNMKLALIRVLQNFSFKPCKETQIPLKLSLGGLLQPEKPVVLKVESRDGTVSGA
ABCB1 (MDR1, human P-gp), sequence (P08183 whole entry): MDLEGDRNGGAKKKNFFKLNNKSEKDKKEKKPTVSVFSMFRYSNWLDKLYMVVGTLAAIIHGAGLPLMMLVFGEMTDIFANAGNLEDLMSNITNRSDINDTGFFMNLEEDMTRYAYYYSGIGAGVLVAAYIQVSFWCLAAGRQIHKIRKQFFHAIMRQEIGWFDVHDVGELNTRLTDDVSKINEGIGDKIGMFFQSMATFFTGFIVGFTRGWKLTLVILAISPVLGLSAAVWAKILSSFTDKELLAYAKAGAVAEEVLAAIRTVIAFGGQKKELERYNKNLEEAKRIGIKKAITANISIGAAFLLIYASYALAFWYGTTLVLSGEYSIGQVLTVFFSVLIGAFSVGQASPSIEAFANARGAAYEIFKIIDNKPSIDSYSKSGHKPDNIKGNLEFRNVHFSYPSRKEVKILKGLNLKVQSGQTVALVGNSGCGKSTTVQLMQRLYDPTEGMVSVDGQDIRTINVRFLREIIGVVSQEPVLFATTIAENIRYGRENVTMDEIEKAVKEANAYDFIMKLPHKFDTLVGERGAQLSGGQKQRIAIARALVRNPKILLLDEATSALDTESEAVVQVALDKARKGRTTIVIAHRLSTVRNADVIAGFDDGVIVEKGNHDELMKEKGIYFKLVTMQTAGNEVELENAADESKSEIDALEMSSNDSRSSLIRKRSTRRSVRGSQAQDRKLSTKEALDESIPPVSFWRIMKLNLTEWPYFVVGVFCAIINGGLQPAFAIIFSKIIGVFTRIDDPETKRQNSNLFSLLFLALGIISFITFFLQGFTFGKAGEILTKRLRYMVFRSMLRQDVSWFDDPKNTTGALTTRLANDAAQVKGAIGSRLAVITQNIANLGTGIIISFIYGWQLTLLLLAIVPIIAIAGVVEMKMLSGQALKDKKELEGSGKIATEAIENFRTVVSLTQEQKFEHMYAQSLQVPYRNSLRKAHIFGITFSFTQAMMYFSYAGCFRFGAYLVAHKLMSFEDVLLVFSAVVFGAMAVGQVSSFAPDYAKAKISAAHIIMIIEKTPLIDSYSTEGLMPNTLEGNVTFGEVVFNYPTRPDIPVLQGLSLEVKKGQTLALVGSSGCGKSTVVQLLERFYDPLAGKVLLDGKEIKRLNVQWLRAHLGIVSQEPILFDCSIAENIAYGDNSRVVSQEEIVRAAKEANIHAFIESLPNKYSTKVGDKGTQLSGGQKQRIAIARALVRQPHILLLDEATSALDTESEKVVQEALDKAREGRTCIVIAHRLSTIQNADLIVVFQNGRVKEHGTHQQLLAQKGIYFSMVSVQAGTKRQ
CYP2D6, sequence (P10635 whole entry): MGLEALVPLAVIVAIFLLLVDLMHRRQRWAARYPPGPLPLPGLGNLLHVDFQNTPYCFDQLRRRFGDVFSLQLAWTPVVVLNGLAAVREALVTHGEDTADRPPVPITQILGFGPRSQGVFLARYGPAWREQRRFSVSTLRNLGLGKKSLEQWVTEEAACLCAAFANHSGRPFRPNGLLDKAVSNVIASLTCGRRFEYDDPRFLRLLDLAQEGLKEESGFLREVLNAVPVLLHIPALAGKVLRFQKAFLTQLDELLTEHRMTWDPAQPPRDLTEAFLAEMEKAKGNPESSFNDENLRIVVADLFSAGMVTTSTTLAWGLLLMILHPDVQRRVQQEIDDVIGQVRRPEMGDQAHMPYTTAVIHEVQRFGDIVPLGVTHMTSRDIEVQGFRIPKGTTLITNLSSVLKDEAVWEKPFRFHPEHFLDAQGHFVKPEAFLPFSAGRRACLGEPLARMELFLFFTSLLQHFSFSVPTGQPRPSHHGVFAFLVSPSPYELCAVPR
CYP2C9, sequence (P11712 whole entry): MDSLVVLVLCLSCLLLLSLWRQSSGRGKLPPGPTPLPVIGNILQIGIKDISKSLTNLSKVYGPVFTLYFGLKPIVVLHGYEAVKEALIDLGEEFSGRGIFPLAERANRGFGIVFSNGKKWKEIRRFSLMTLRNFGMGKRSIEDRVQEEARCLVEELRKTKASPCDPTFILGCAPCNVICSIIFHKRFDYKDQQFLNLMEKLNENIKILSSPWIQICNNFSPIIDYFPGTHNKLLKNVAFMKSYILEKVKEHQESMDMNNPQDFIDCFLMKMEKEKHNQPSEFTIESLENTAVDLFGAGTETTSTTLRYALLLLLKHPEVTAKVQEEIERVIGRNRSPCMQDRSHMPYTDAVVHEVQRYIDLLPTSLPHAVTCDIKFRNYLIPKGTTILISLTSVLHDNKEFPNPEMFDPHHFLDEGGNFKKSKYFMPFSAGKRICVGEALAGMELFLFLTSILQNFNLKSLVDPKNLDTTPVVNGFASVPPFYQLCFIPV

Compound	Solubility in 0.05M PO4- [1] [µg/mL]	CYP2C9 Inhibition [2] [%]	CYP2D6 Inhibition [3] [%]	CYP3A4 Inhibition [4] [%]	PAMPA permeability [5]	solubility [1] [µg/mL]	microsomal CLint at 1 µM [6] [µL/min/mg]	hepatocyte CLint at 1 µM [7] [µL/min/1e6 cells]	microsomal CLint at 1 µM [8] [µL/min/mg]	Papp at 18 h, 150 µM [5] [×10⁻⁶ cm/s]	cell permeability ([5]; in words, SI2.2, Fig. S1 (PAMPA vs LipE))	Papp A→B [9] [×10⁻⁶ cm/s]	solubility [10] [µg/mL]	Lipophilic efficiency (LipE) [11]	Hepatocyte clearance ([7]; cryopreserved hepatocytes of human origin, 1 µM compound) [µL/min/10^6 cells]
O=C(c1ccc2nc(-c3cccnc3C3CCNCC3)oc2c1)N1CCN(c2nc3nc(Cl)ccc3o2)CC1.O=CO [Compound 26]	> 590	-23	18	12	0.01 10^-6 cm/s	–	–	–	–	–	–	–	–	–	–
O=C(c1ccc2nc(-c3cnccc3C3CCCC3)oc2c1)N1CCN(c2nc3ccccc3c(=O)[nH]2)CC1 [Compound 18]	–	62	45	> 90	–	< 0.05	853	–	–	–	–	–	–	–	–
O=C(c1ccc2nc(-c3cnccc3C3CCNCC3)oc2c1)N1CCN(c2nc3nc(Cl)ccc3o2)CC1.O=CO [Compound 25]	–	-5	34	70	–	84	10	1	10	0.02	–	–	–	–	–
O=C(c1ccc2nc(-c3cnccc3C3CCCC3)oc2c1)N1CC(N2CCN(C(=O)c3nccs3)CC2)C1 [Compound 31]	–	43	22	> 90	–	–	431	163	–	12.1	potent cell permeability	–	–	–	–
O=C(c1ccc2nc(-c3cccnc3C3CCCC3)oc2c1)N1CCN(c2nc3ccccc3c(=O)[nH]2)CC1 [Compound 21]	–	74	41	4	–	< 0.05	53	47.7	114	3.7	–	10	–	–	–
O=C(c1ccc2nc(-c3cccnc3C3CCCC3)oc2c1)N1CCN(c2nc3nc(Cl)ccc3o2)CC1 [Compound 24]	–	45	26	8	–	< 0.05	69	42.2	61	8.5	–	9.3	2.5 (≈ 4.73 µM)	–	–
O=C(c1ccc2nc(-c3ccc(C4CCCC4)nc3)oc2c1)N1CC2(CC(n3cnc(C4CC4)n3)C2)C1 [Compound 30]	–	-19	3	-40	–	< 0.05	563	187	–	4.4	–	–	–	–	–
O=C(c1ccc2nc(-c3cnc(C4CCCCC4)cc3C3CCCCC3)oc2c1)N1CCN(c2nc3ccccc3c(=O)[nH]2)CC1 [Compound 19]	–	49	23	44	–	< 1.1	17	4.6	47	–	–	–	–	–	–
O=C(c1ccc2nc(-c3ccc(C4(C5CCC5)CC4)nc3)oc2c1)N1CCN(c2nc3ccccc3c(=O)[nH]2)CC1 [Compound 20]	< 0.05	24	16	49	–	–	–	–	–	–	–	–	–	2.84	84.2
O=C(c1ccc2nc(-c3ccc(C4CCCC4)nc3)oc2c1)N1CCN(c2nc3ccccc3c(=O)[nH]2)CC1 [Compound 22]	–	23	62	-59	–	< 0.05	142	104	–	2.7	–	8.1	–	–	–
O=C(c1ccc2nc(-c3cccnc3C3(C4CCC4)CC3)oc2c1)N1CCN(c2nc3nc(Cl)ccc3o2)CC1 [Compound 28]	–	–	–	–	5.8 10^-6 cm/s	–	–	–	–	–	–	–	–	2.31	–
